Measurements from article PMC10716637 (RSC Advances, 2023).
Read-outs that look alike come from different tables or passages of the source.

Experiments:
[1] = target: VEGFR-2 (Homo sapiens, UniProt P35968); experiment: In vitro VEGFR-2 kinase inhibitory assay; assay type: biochemical
[2] = tested on: HCT116; experiment: MTT cytotoxicity assay, HCT116; assay type: cell-based, human; conditions: for EC50: Homo sapiens, HCT-116, read-out: EC50 HCT116; for Selectivity index (SI): folds lethalness in HCT-116 than in VERO cells: CC50 VERO vs EC50 HCT-116
[3] = tested on: A549; experiment: MTT cytotoxicity assay, A549; assay type: cell-based, human; conditions: for EC50: Homo sapiens, A549, read-out: EC50 A549; for Selectivity index (SI): folds toxicity in A549 than in VERO cells: CC50 VERO vs EC50 A549
[4] = tested on: HepG2; experiment: MTT cytotoxicity assay, HepG2; assay type: cell-based, human; conditions: for EC50: Homo sapiens, HepG2, read-out: EC50 HepG2; for Selectivity index (SI): folds more toxic respecting HepG2 than normal VERO cells: CC50 VERO vs EC50 HepG2
[5] = target: EGFR^T790M (Homo sapiens, UniProt P00533, T790M); experiment: In vitro EGFR^T790M kinase inhibitory assay; assay type: biochemical
[6] = tested on: MCF-7; experiment: MTT cytotoxicity assay, MCF-7; assay type: cell-based, human; conditions: for EC50: Homo sapiens, MCF7, read-out: EC50 MCF-7; for Selectivity index (SI): folds toxic in MCF-7 than in normal VERO cells: CC50 VERO vs EC50 MCF-7
[7] = target: EGFR^WT (Homo sapiens, UniProt P00533); experiment: In vitro EGFR^WT kinase inhibitory assay; assay type: biochemical
[8] = Cytotoxicity against VERO normal cell lines; conditions: African green monkey, VERO normal cells

EGFR^WT, sequence (P00533 25-1210): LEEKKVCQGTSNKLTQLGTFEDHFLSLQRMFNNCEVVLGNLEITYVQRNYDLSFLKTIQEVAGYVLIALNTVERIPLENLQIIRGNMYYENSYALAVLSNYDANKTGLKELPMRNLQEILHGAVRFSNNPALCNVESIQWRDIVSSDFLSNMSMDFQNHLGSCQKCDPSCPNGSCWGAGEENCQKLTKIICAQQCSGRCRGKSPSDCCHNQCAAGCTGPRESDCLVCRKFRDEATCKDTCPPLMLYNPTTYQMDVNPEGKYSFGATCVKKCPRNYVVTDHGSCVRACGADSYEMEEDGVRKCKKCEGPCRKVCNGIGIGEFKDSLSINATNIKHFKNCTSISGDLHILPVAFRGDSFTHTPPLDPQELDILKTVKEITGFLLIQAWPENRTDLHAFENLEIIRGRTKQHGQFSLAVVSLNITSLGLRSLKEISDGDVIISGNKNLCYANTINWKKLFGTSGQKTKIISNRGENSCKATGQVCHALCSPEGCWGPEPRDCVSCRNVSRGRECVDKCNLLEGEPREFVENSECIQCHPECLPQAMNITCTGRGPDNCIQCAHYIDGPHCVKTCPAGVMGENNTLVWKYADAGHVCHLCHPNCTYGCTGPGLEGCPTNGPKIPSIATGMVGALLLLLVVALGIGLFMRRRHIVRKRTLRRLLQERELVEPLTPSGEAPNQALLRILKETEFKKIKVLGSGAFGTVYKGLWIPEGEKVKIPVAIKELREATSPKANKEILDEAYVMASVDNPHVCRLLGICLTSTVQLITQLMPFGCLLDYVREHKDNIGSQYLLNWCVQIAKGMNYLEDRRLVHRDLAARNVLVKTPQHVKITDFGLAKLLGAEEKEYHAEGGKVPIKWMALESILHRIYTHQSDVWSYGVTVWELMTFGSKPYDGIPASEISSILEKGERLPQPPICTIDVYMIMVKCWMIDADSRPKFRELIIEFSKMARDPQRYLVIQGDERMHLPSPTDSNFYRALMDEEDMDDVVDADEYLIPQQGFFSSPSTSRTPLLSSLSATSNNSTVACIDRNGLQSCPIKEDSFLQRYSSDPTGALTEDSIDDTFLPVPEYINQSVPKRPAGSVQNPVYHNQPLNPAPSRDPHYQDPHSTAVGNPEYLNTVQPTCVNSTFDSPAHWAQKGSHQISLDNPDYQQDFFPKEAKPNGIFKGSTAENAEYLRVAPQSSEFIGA
VEGFR-2, sequence (P35968 20-1356): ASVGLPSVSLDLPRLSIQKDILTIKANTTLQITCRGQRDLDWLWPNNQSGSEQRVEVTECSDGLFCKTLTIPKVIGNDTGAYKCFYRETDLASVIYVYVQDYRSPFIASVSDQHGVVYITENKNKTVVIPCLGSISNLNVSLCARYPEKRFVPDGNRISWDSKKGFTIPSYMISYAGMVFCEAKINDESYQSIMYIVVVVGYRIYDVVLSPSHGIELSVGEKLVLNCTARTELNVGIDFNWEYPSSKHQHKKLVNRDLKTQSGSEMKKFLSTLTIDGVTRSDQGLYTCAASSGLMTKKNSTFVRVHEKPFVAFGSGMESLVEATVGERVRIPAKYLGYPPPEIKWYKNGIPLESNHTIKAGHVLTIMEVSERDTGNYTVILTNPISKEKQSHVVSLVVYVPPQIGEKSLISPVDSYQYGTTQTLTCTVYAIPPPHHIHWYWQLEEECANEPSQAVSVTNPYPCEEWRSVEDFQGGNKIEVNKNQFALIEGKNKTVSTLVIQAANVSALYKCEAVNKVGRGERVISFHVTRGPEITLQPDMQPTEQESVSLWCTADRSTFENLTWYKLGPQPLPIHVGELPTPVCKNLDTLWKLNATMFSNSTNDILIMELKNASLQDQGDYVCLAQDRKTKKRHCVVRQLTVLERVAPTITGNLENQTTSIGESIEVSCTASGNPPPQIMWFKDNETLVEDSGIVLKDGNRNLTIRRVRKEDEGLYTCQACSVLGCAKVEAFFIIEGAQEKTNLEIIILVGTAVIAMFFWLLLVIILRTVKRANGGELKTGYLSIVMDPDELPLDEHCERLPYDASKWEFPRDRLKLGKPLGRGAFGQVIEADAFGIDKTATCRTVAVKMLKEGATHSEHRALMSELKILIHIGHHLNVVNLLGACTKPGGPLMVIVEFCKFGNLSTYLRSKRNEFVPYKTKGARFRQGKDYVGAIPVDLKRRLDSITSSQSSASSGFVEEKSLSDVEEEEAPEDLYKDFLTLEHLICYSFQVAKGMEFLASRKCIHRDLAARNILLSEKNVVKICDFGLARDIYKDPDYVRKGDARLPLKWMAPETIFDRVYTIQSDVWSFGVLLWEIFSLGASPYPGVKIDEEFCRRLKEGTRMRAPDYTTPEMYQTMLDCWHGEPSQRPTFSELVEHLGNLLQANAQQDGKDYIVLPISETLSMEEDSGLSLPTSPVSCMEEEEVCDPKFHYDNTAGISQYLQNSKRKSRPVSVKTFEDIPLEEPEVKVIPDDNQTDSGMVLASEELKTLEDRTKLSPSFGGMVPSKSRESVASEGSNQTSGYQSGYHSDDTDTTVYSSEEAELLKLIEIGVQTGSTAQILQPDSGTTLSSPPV
EGFR^T790M, sequence (P00533 25-1210 T790M): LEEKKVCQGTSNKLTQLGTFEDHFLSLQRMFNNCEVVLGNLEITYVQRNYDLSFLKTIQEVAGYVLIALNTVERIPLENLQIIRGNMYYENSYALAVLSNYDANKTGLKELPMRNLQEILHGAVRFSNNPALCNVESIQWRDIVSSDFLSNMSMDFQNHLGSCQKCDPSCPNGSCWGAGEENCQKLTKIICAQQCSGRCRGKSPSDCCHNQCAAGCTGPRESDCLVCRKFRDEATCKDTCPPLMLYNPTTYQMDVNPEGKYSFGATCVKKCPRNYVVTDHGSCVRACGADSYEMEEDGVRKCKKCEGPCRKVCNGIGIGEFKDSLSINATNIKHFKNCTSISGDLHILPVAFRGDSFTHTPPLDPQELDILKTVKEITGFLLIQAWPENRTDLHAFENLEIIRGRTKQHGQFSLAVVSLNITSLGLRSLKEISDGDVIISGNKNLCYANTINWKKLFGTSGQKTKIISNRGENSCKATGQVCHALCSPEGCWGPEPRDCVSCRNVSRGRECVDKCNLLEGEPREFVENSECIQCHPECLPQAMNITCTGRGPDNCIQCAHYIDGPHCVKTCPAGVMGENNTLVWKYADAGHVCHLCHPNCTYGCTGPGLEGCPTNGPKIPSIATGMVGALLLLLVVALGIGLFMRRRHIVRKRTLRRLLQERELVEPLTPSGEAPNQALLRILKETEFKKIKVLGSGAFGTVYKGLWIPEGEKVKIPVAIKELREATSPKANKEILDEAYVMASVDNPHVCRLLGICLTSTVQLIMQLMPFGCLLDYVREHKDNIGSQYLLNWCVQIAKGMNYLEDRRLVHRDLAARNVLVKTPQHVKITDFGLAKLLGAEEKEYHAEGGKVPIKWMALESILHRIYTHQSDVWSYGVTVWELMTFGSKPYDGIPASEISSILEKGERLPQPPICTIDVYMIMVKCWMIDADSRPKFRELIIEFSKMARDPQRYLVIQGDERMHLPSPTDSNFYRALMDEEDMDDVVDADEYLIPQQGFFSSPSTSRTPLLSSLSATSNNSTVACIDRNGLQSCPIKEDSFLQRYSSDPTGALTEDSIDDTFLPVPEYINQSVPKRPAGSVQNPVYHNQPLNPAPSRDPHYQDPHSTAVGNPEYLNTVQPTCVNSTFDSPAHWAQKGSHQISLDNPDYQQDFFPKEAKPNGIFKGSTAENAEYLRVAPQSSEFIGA

SMILES | IC50 [1] | EC50 [2] | EC50 [3] | EC50 [4] | IC50 [5] | EC50 [6] | Selectivity index (SI): folds lethalness in HCT-116 than in VERO cells [2] | Selectivity index (SI): folds toxicity in A549 than in VERO cells [3] | Selectivity index (SI): folds more toxic respecting HepG2 than normal VERO cells [4] | IC50 [7] | CC50 [8] | Selectivity index (SI): folds toxic in MCF-7 than in normal VERO cells [6] | IC50 ([5]; IC50 EGFR^T790M)
CCn1c(=O)n(CC(=O)Nc2ccc(-c3nnc(S)o3)cc2)c(=O)c2cc(I)ccc21 [Compound 8a, 2-[1-Ethyl-6-iodo-2,4-dioxo-1,4-dihydroquinazolin-3(2H)-yl]-N-[4-(5-mercapto-1,3,4-oxadiazol-2-yl)phenyl]acetamide] | 1.5 ± 0.1 µM | 7.25 ± 0.9 µM | 10.1 ± 0.9 µM | 7.55 ± 0.9 µM | 1 ± 0.5 µM | 8.25 ± 0.9 µM |  |  |  |  |  |  | 
CCCn1c(=O)n(CC(=O)Nc2ccc(-c3nnc(S)o3)cc2)c(=O)c2cc(I)ccc21 [Compound 8b, 2-[6-Iodo-2,4-dioxo-1-propyl-1,4-dihydroquinazolin-3(2H)-yl]-N-[4-(5-mercapto-1,3,4-oxadiazol-2-yl)phenyl]acetamide] | 1.38 ± 0.1 µM | 6.75 ± 0.7 µM | 6.7 ± 0.5 µM | 7.5 ± 0.7 µM | 0.45 ± 0.35 µM | 7.45 ± 0.7 µM | 7.52 folds | 7.57 folds | 6.77 folds | 0.38 ± 0.03 µM | 50.75 ± 0.5 µM | 6.81 folds | 
CCn1c(=O)n(CC(=O)Nc2ccc(C(=O)NN=Cc3ccccc3)cc2)c(=O)c2cc(I)ccc21 [Compound 9a, N-[4-(2-benzylidenehydrazine-1-carbonyl)phenyl]-2-[1-ethyl-6-iodo-2,4-dioxo-1,4-dihydroquinazolin-3(2H)-yl]acetamide] | 1 ± 0.1 µM | 6.29 ± 0.7 µM | 6.75 ± 0.7 µM | 6.8 ± 0.7 µM | 0.75 ± 0.5 µM | 7.5 ± 0.7 µM | 7.23 folds | 6.74 folds | 6.69 folds |  | 45.5 ± 0.5 µM | 6.07 folds | 1.5 µM
CCn1c(=O)n(CC(=O)Nc2ccc(C(=O)NN=Cc3ccc(C)cc3)cc2)c(=O)c2cc(I)ccc21 [Compound 9b, 2-[1-Ethyl-6-iodo-2,4-dioxo-1,4-dihydroquinazolin-3(2H)-yl]-N-{4-[2-(4-methylbenzylidene)hydrazine-1-carbonyl]phenyl}acetamide] | 0.9 ± 0.1 µM | 5.93 ± 0.6 µM | 6.75 ± 0.6 µM | 6.2 ± 0.7 µM | 0.5 ± 0.35 µM | 6.7 ± 0.6 µM | 8.31 folds | 7.30 folds | 7.94 folds | 0.35 ± 0.03 µM | 49.2 ± 0.5 µM | 7.35 folds | 
CCn1c(=O)n(CC(=O)Nc2ccc(C(=O)NN=Cc3ccc(OC)cc3)cc2)c(=O)c2cc(I)ccc21 [Compound 9c, 2-[1-Ethyl-6-iodo-2,4-dioxo-1,4-dihydroquinazolin-3(2H)-yl]-N-{4-[2-(4-methoxybenzylidene)-hydrazine-1-carbonyl]phenyl}acetamide] | 0.85 ± 0.1 µM | 5.17 ± 0.5 µM | 5.25 ± 0.5 µM | 5 ± 0.5 µM | 0.22 ± 0.3 µM | 6 ± 0.5 µM | 10.64 folds | 10.48 folds | 11.00 folds | 0.15 ± 0.03 µM | 55 ± 0.5 µM | 9.17 folds | 
CCCn1c(=O)n(CC(=O)Nc2ccc(C(=O)NN=Cc3ccccc3)cc2)c(=O)c2cc(I)ccc21 [Compound 9d, N-[4-(2-benzylidenehydrazine-1-carbonyl)phenyl]-2-[6-iodo-2,4-dioxo-1-propyl-1,4-dihydroquinazolin-3(2H)-yl]acetamide] | 0.9 ± 0.1 µM | 6.5 ± 0.5 µM | 5.48 ± 0.5 µM | 5.65 ± 0.5 µM | 0.26 ± 0.3 µM | 6.45 ± 0.5 µM | 7.75 folds | 9.20 folds | 8.92 folds | 0.2 ± 0.03 µM | 50.39 ± 0.5 µM | 7.81 folds | 
CCCn1c(=O)n(CC(=O)Nc2ccc(C(=O)NN=Cc3ccc(Cl)cc3)cc2)c(=O)c2cc(I)ccc21 [Compound 9e, N-{4-[2-(4-chlorobenzylidene)hydrazine-1-carbonyl]phenyl}-2-{6-iodo-2,4-dioxo-1-propyl-1,4-dihydroquinazolin-3(2H)-yl}acetamide] | 1.2 ± 0.1 µM | 6.7 ± 0.7 µM | 6.3 ± 0.7 µM | 7.36 ± 0.7 µM | 0.3 ± 0.3 µM | 7.3 ± 0.7 µM | 6.87 folds | 7.30 folds | 6.25 folds | 0.25 ± 0.03 µM | 46 ± 0.5 µM | 6.30 folds | 
C#Cc1cccc(Nc2ncnc3cc(OCCOC)c(OCCOC)cc23)c1 [Erlotinib, reference compound] |  | 8.2 ± 0.34 µM | 5.49 ± 0.45 µM | 7.73 ± 0.67 µM |  | 13.9 ± 1.3 µM |  |  |  |  |  |  | 
CNC(=O)c1cc(Oc2ccc(NC(=O)Nc3ccc(Cl)c(C(F)(F)F)c3)cc2)ccn1 [Sorafenib, reference compound] |  | 5.58 ± 0.55 µM | 4.04 ± 0.33 µM | 4 ± 0.33 µM |  |  |  |  |  |  |  |  | 
